Here are results for 6 molecules from ChEMBL document CHEMBL3233001, “Pharmacophoric modifications lead to superpotent αvβ3 integrin ligands with suppressed α5β1 activity” (J Med Chem, 2014).

pIC50: −log10 of the molar value. Some results are limits rather than exact numbers.

Common to all, as to type: protein-complex assay
One experiment deals with Integrin alpha-V/beta-3 (Homo sapiens, UniProt P05106+P06756). As to the kind of experiment: Inhibition of vitronectin binding to human alphavbeta3 integrin receptor after 1 hr by competitive solid-phase binding ELISA. (In an ELISA, binding on a coated surface is turned into a signal by an enzyme label.)
The next experiment deals with Integrin alpha-5/beta-1 (Homo sapiens, UniProt P05556+P08648). As to the kind of experiment: Inhibition of fibronectin binding to human alpha5beta1 integrin receptor after 1 hr by competitive solid-phase binding ELISA.
The target in the next experiment is Integrin alpha-V/beta-5 (Homo sapiens, UniProt P06756+P18084). As to the kind of experiment: Inhibition of vitronectin binding to alphavbeta5 integrin receptor (unknown origin) after 1 hr by competitive solid-phase binding ELISA.
The next experiment deals with Integrin alpha-V/beta-6 (Homo sapiens, UniProt P06756+P18564). As to the kind of experiment: Inhibition of LAP binding to human alphavbeta6 integrin receptor after 1 hr by competitive solid-phase binding ELISA.
The target of experiment [1] is Integrin alpha-IIb/beta-3 (Homo sapiens, UniProt P05106+P08514). As to the kind of experiment: Inhibition of fibrinogen binding to alpha2bbeta3 integrin receptor (unknown origin) after 1 hr by competitive solid-phase binding ELISA.

As to `Cc1cccc(NCCCOc2ccc(C[C@@H](CC(=O)O)NC(=O)c3ccccc3)cc2)n1`, the pIC50 – broadly, the IC50 on a negative log10 scale, so that one unit is a factor of ten – on Integrin alpha-V/beta-3 is 6.96; on Integrin alpha-5/beta-1, < 5.00.
On to `COc1ccnc(NCCCOc2ccc(C[C@@H](CC(=O)O)NC(=O)c3ccc(OC(C)C)cc3)cc2)c1`, for which the pIC50 was 6.64 at Integrin alpha-V/beta-5; 7.70 at Integrin alpha-V/beta-6; 9.07 at Integrin alpha-V/beta-3; < 5.00 in experiment [1]; 6.90 at Integrin alpha-5/beta-1.
Consider `COc1ccnc(NCCCOc2ccc(C[C@@H](CC(=O)O)NS(=O)(=O)c3ccc(C)cc3)cc2)c1`, for which the pIC50 is 9.19 at Integrin alpha-V/beta-3, < 5.00 in experiment [1] and 6.97 on Integrin alpha-5/beta-1.
`COc1ccnc(NCCCOc2ccc(C[C@@H](CC(=O)NO)NC(=O)c3ccc(OC(C)C)cc3)cc2)c1`: the figures for the pIC50 on Integrin alpha-V/beta-3 and on Integrin alpha-5/beta-1 were 6.20 and < 5.00, respectively.
For `COc1ccnc(NCCCOc2ccc(C[C@@H](CC(=O)NO)NS(=O)(=O)c3ccc(C)cc3)cc2)c1`, the results for the pIC50 at Integrin alpha-V/beta-3 and on Integrin alpha-5/beta-1 were 7.12 and < 5.00, respectively.
In the case of `COc1ccnc(NCCCOc2ccc(C[C@@H](CC(=O)O)NC(=O)c3ccc(F)cc3)cc2)c1`, the pIC50 is 8.80 on Integrin alpha-V/beta-3 and 7.19 on Integrin alpha-5/beta-1.
